# Where two headings read alike, the source gives them in different places.
# Tests used:
# [1] = tested on: Staphylococcus aureus FDA 209P (JC-1); assay: Minimal inhibitory concentration (agar); type: cell-based; conditions: FDA209P, 48 h, nutrient agar, pH 7.0, 2 days, 37° C.
# Experimental: (§1) Medium N nutrient agar (pH 7.0, 2 days, 37° C.)
# (§2) MIC Minimal inhibitory concentration
# N nutrient agar (pH 7.0, 2 days, 37° C.)
# [2] = tested on: Mycobacterium smegmatis; assay: Minimal inhibitory concentration (agar); type: cell-based; conditions: Mycolicibacterium smegmatis, 48 h; nutrient agar, pH 7.0, 2 days, 37° C.
# Experimental: as §1, §2
# [3] = tested on: Klebsiella pneumoniae PCI 602; assay: Minimal inhibitory concentration (agar); type: cell-based; conditions: PCI602, 48 h, nutrient agar, pH 7.0, 2 days, 37° C.
# [4] = tested on: Xanthomonas oryzae N-5824; assay: microbe, parasite or virus in culture; type: cell-based; conditions: N5824, 48 h, pH 7
# [5] = tested on: Saccharomyces sake; assay: Minimal inhibitory concentration (agar); type: cell-based; conditions: Saccharomyces, 96 h, pH 6.4, 4 days, 27° C., read-out: MIC
# [6] = tested on: Aspergillus fumigatus IAM 2612; assay: Minimal inhibitory concentration (agar); type: cell-based; conditions: IAM2612, 96 h, potato agar, pH 6.4, 4 days, 27° C.
# Experimental: P potato agar (pH 6.4, 4 days, 27° C.)
# as §2
# [7] = tested on: Aspergillus fumigatus; assay: Minimal inhibitory concentration (agar dilution method); type: cell-based; conditions: Aspergillus fumigatus, 96 h; potato agar, pH 6.4, 27° C., 4 days; read-out: Minimal Inhibitory Con.
# Experimental: (§3) Minimal inhibitory concentration was assayed by agar dilution method
# (§4) (potato agar, pH 6.4, 27° C., 4 days).
# [8] = tested on: Microsporum gypseum; assay: as above; type: cell-based; conditions: Nannizzia gypsea, 96 h; potato agar, pH 6.4, 27° C., 4 days; read-out: Minimal Inhibitory Con.
# Experimental: as §3, §4
# [9] = tested on: mycoplasma; assay: Antimycoplasma activity, paper disc method; type: cell-based
# Experimental: Inhibitory zone is assayed by paper disc method (Eiken PPLO agar, pH 7.8,
# Nanaomycin A and derivatives thereof according to the present invention are assayed in a similar manner to that designated as the paper disc method by Itoh, et al [J. of Antibiotics, 24, 855-859 (1971)], for example, as follows: […]
# [10] = tested on: Tricophyton metagorphytes; assay: Treatment of dermatomycosis at the back of guinea pigs; type: in vivo; conditions: 0.01-1% solution in propyleneglycol-ethanol (3:1 v/v), once daily for 8 days
# [11] = tested on: Trichophyton verrucosum; assay: Treatment of dermatomycosis of cattle; type: in vivo; design: key: +++: complete removal of scales and; ++: a little scales remained; +: removal of a part of scales; -: no removal of scale and no recovery
# Experimental: When dermatomycosis of cattle caused by mass infection of Trichophyton verrucosum is treated with nanaomycin A, nanaomycin A is dissolved or suspended in a suitable carrier, for example, olive oil, and is coated on the affected part directly with or without removal of the scales. […] The results obtained by once-coating of nanaomycin A and by twice-coating (the second coating is carried out a week after the first coating) are shown in Tables 2 and 3, respectively. | I : direct coating on affected part | II : coating after removing the scales of affected | Con. : concentration of agent
# [12] = tested on: Mycoplasma gallisepticum; assay: Growth inhibition (text summary of Table 1); type: cell-based; conditions: Mycoplasmoides gallisepticum, 192 h; read-out: concentration at which growth is inhibited
# Experimental: H Hokken PPLO agar (pH 7.8, 8 days, 37° C.)
# E Eiken PPLO agar (pH 7.8, 8 days, 37° C.)
# [13] = tested on: Gram-positive bacteria; assay: Antibacterial activity (in words); type: cell-based
# [14] = tested on: Piricularia oryzae; assay: microbe, parasite or virus in culture; type: cell-based; conditions: 96 h, pH 6.4, potato agar, pH 6.4, 4 days, 27° C.
# [15] = tested on: Trichophyton pedis 804; assay: Minimal inhibitory concentration (agar); type: cell-based; conditions: Trichophyton pedis, 804, 96 h, pH 6.4, potato agar, pH 6.4, 4 days, 27° C.; read-out: MIC
# [16] = tested on: Trichophyton purpureum; assay: Minimal inhibitory concentration (agar); type: cell-based; conditions: 96 h, pH 6.4, potato agar, pH 6.4, 4 days, 27° C., read-out: MIC
# [17] = tested on: Trichophyton violaceum; assay: Minimal inhibitory concentration (agar); type: cell-based; conditions: Trichophyton violaceum, 96 h, pH 6.4, potato agar, pH 6.4, 4 days, 27° C.; read-out: MIC
# [18] = tested on: fungi; assay: Antifungal activity (in words); type: cell-based
# [19] = Acute toxicity in mice; conditions: intra-penetrial injection
# [20] = once-coating, I direct coating, 0.1 mg/ml
# [21] = once-coating, I direct coating, 1 mg/ml
# [22] = once-coating, I direct coating, 10 mg/ml
# [23] = once-coating, II after removing scales, 0.1 mg/ml
# [24] = once-coating, II after removing scales, 1 mg/ml
# [25] = once-coating, II after removing scales, 10 mg/ml
# [26] = twice-coating, I direct coating, 0.1 mg/ml
# [27] = twice-coating, I direct coating, 1 mg/ml
# [28] = twice-coating, I direct coating, 10 mg/ml
# [29] = twice-coating, II after removing scales, 0.1 mg/ml
# [30] = twice-coating, II after removing scales, 1 mg/ml
# [31] = twice-coating, II after removing scales, 10 mg/ml
structure (smiles),measurement,setting,value
"CC1OC(CC(=O)O)CC2=C1C(=O)c1c(O)cccc1C2=O (stereo not drawn) [Nanaomycin A, nanaomycin A]",MIC,[1],2 µg/mL
same,MIC,[2],62.5 µg/mL
same,MIC,[3],31.3 µg/mL
same,MIC,[4],62.5 µg/mL
same,MIC,"[5]; pH 6.4, potato agar",12.5 µg/mL
same,MIC,[5]; potato agar,31.2 µg/mL
same,MIC,[6],12.5 µg/mL
same,MIC,[7],6.3 µg/mL
same,MIC,[8],0.8 µg/mL
same,zone of inhibition at 10 µg/mL,"[9]; Mycoplasma, 24 h, 10 μg/ml, Eiken PPLO agar, pH 7.8, 37° C., 1 day, read-out: Inhibitory Zone",20.4 mm
same,zone of inhibition at 100 µg/mL,"[9]; Mycoplasma, 24 h, 100 μg/ml, Eiken PPLO agar, pH 7.8, 37° C., 1 day, read-out: Inhibitory Zone",28.7 mm
same,antimycoplasma activity compared with deoxyfrenolicin and ethylkalafunginate,"[9]; paper disc, Table 5",superior to those of deoxyfrenolicin and ethylkalafunginate
same,therapeutic effect on erythema and scales,[10],excellent therapeutic effect
same,Result after 1 week,[11]; [20],++
same,Result after 2 weeks,[11]; [20],++
same,Result after 3 weeks,[11]; [20],+++
same,Result after 4 weeks,[11]; [20],+++
same,Result after 1 week,[11]; [21],+++
same,Result after 2 weeks,[11]; [21],+++
same,Result after 3 weeks,[11]; [21],+++
same,Result after 4 weeks,[11]; [21],+++
same,Result after 1 week,[11]; [22],+++
same,Result after 2 weeks,[11]; [22],+++
same,Result after 3 weeks,[11]; [22],+++
same,Result after 4 weeks,[11]; [22],+++
same,Result after 1 week,[11]; [23],+++
same,Result after 2 weeks,[11]; [23],+++
same,Result after 3 weeks,[11]; [23],+++
same,Result after 4 weeks,[11]; [23],+++
same,Result after 1 week,[11]; [24],+++
same,Result after 2 weeks,[11]; [24],+++
same,Result after 3 weeks,[11]; [24],+++
same,Result after 4 weeks,[11]; [24],+++
same,Result after 1 week,[11]; [25],+++
same,Result after 2 weeks,[11]; [25],+++
same,Result after 3 weeks,[11]; [25],+++
same,Result after 4 weeks,[11]; [25],+++
same,Result after 1 week,[11]; [26],++
same,Result after 2 weeks,[11]; [26],+++
same,Result after 3 weeks,[11]; [26],+++
same,Result after 4 weeks,[11]; [26],+++
same,Result after 1 week,[11]; [27],++
same,Result after 2 weeks,[11]; [27],++
same,Result after 3 weeks,[11]; [27],+++
same,Result after 4 weeks,[11]; [27],+++
same,Result after 1 week,[11]; [28],+++
same,Result after 2 weeks,[11]; [28],+++
same,Result after 3 weeks,[11]; [28],+++
same,Result after 4 weeks,[11]; [28],+++
same,Result after 1 week,[11]; [29],+++
same,Result after 2 weeks,[11]; [29],+++
same,Result after 3 weeks,[11]; [29],+++
same,Result after 4 weeks,[11]; [29],+++
same,Result after 1 week,[11]; [30],+++
same,Result after 2 weeks,[11]; [30],+++
same,Result after 3 weeks,[11]; [30],+++
same,Result after 4 weeks,[11]; [30],+++
same,Result after 1 week,[11]; [31],+++
same,Result after 2 weeks,[11]; [31],+++
same,Result after 3 weeks,[11]; [31],+++
same,Result after 4 weeks,[11]; [31],+++
same,MIC,[12],≤ 0.1 µg/mL
same,activity against Gram-positive bacteria,[13],strong activity
"CC(=O)Oc1cccc2c1C(=O)C1=C(CC(CC(=O)O)OC1C)C2=O (stereo not drawn) [Acetylnanaomycin A, acetylnanaomycin A]",MIC,[1],0.8 µg/mL
same,MIC,"[5]; pH 6.4, potato agar",12.5 µg/mL
same,MIC,[14],0.8 µg/mL
same,MIC,[15],0.8 µg/mL
same,MIC,[16],1.6 µg/mL
same,MIC,[17],0.8 µg/mL
same,activity against Gram-positive bacteria,[13],a strong activity against Gram-positive bacteria than nanaomycin A
same,activity against fungi,[18],as strong activity against fungi and mycoplasmas as nanaomycin A
same,acute toxicity compared with nanaomycin A,[19],lower than that of nanaomycin A
